In one assay the target is hSST-1 (Homo sapiens, UniProt P30872). The experiment in a line: competition binding assay, membranes of CHO cells expressing hSST-1, [125I-Tyr3]-octreotide. The following applies: competition with [125I-Tyr3]-octreotide; read-out: IC50 (nM) hSSTR-1. On the procedure: (§1) The binding assays may be carried out as disclosed hereunder using membranes prepared from hSST-1, hSST-2, hSST-3, hSST-4 or hSST-5 selective cell lines, e.g. CHO cells stably expressing hSST-1, hSST-2, hSST-3, hSST-4 or hSST-5.
hSST-1, sequence (P30872 whole entry): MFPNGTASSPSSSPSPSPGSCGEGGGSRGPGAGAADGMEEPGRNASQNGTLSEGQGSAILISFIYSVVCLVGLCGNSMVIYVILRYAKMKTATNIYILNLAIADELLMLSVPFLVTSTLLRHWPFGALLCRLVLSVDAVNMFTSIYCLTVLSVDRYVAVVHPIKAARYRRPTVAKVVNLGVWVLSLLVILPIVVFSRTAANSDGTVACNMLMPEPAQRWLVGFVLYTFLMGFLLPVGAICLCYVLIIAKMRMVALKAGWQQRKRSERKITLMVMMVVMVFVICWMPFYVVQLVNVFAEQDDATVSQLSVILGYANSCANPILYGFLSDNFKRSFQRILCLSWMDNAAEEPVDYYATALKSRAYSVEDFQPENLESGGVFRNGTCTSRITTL
(§2) Brain or pituitary tissue is used in which hSST are visualized with e.g. in situ hybridization and/or receptor autoradiography. Membranes are prepared according to known methods, e.g. as disclosed by J C. Reubi et al. in J. Clin. Endocrinol. Metab. 1987, 65, 1127-1137. Membranes prepared from hSST selective cell lines, e.g. CHO cells stably expressing hSST-1 or hSST-2 or hSST-3 or hSST-4 or hSST-5 are incubated in triplicate in a total volume of 300 μl at 22° C. for 30 min with increasing concentrations of [^125 I-Tyr^3 ]-octreotide in 10 mmol/l Hepes buffer (pH 7.6) containing 0.5% BSA. The incubation is terminated by rapid filtration through Whatman GF/B glass fiber filters, which are then washed four times each with 5 ml ice cold 10 mmol/l Tris/150 mmol/l NaCl. The filters are counted in a LKB counter at 78% counting efficiency. Specific binding is total binding minus non-specific binding in the presence of 1 μmol/l somatostatin-14. The experiments are carried out in triplicate. The affinity constant (KD) and number of binding sites are calculated from Scatchard plots of the data.
(§3) The COMPOUNDS OF THE INVENTION, e.g. as indicated above, respectively, have in the above binding assays towards hsST-1, hSST-2, hSST-3, hSST-4 and/or hSST-5 an IC50 in the nMolar range, preferably an IC50 of from 0.1 to 10 nM (IC50 =concentration for half-maximal inhibition in a competition binding assay using [^125 I-Tyr^3 ]-octreotide the same radioligand as indicated above).

The target in another assay is hSST-2 (Homo sapiens, UniProt P30874). The assay can be described thus: competition binding assay, membranes of CHO cells expressing hSST-2, [125I-Tyr3]-octreotide. The following applies: competition with [125I-Tyr3]-octreotide; read-out: IC50 (nM) hSSTR-2. Here is the method: as §1, §2, §3
hSST-2, sequence (P30874 whole entry): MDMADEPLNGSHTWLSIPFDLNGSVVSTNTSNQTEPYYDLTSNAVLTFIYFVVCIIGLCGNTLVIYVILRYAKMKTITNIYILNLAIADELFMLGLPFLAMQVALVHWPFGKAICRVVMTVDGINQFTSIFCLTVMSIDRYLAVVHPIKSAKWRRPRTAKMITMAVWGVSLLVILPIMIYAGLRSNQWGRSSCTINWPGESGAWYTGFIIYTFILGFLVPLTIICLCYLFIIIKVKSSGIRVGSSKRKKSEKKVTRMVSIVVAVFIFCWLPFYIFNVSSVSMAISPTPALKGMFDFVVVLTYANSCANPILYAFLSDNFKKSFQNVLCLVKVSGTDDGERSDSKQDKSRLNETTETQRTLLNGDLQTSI
The target in the next assay is hSST-3 (Homo sapiens, UniProt P32745). The assay can be described thus: competition binding assay, membranes of CHO cells expressing hSST-3, [125I-Tyr3]-octreotide. The following applies: competition with [125I-Tyr3]-octreotide; read-out: IC50 (nM) hSSTR-3. On the procedure:
as §1, §2, §3

A further assay deals with hSST-4 (Homo sapiens, UniProt P31391). The assay can be described thus: competition binding assay, membranes of CHO cells expressing hSST-4, [125I-Tyr3]-octreotide. The following applies: competition with [125I-Tyr3]-octreotide; read-out: IC50 (nM) hSSTR-4.
hSST-4, sequence (P31391 whole entry): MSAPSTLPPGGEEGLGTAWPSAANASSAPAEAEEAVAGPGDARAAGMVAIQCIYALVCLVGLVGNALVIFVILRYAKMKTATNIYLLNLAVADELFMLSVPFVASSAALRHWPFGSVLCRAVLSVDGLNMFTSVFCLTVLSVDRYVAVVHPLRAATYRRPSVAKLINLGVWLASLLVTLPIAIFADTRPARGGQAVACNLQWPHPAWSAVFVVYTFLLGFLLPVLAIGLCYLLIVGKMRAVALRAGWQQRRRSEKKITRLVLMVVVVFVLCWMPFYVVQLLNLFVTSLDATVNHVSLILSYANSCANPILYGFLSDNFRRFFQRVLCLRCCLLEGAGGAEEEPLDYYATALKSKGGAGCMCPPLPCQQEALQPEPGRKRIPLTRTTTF
The target in the next assay is hSST-5 (Homo sapiens, UniProt P35346). The experiment in a line: competition binding assay, membranes of CHO cells expressing hSST-5, [125I-Tyr3]-octreotide. The note with it: competition with [125I-Tyr3]-octreotide; read-out: IC50 (nM) hSSTR-5. On the procedure:
as §1, §2, §3

Assay [1] deals with GH release from cultured pituitary cells. The experiment in a line: inhibition of GH release in vitro from cultured pituitary cells. It is filed as cell-based. The note with it: rat pituitary cells, 3×10^-10 M growth hormone releasing factor, two to four hours. On the procedure: Furthermore, the COMPOUNDS OF THE INVENTION show GH-release inhibiting activity as indicated by the inhibition of GH release in vitro from cultured pituitary cells. Anterior pituitary glands from adult male rats are cut into small pieces and dispersed using 0.1% trypsin in 20 mM HEPES buffer. The dispersed cells are cultured for four days in MEM (Gibco) supplemented with 5% fetal calf serum, 5% horse serum, 1 mM NaHCO3, 2.5 nM dexamethasone, 2.5 mg/ml insulin and 20 U/ml Pen/Strep. On the day of the experiment the attached cells are washed two times with Krebs-Ringer medium buffered with 20 mM HEPES and supplemented with 5 mM glucose and 0.2% BSA. Subsequently the cells are incubated for two to four hours with the test compound in the presence of 3×10^-10 M growth hormone releasing factor. The amount of growth hormone released into the medium is measured by RIA.

Assay [2] concerns AR42J rat pancreatic tumor cell line. The experiment in a line: AR42J proliferation test. The assay is classed as cell-based. The following applies: exposure 2 to 5 days; ± SE; read-out: IC50, inhibition of proliferation of AR42J tumor cells. Here is the method: The AR42J rat pancreatic tumor cell line is derived from an azaserine-induced exocrine pancreatic tumor (Jessop and Hay, 1980). The absence of mycoplasma is regularly checked using bisbenzimide staining and the GenProbe hybridization assay (San Diego, Calif.). Cultures are propagated in DMEM supplemented with 10% fetal calf serum (FCS) at 5% CO2. Cells are grown in the absence of antibiotics or antifungal agents. Subconfluent AR42J cells are trypsinized, diluted in DMEM +2.5% FCS and seeded in uncoated 96-well plates. After a 48-hr incubation period (Day 0), the number of cells in a separate control plate is determined both by counting cells in a Coulter counter and by the SRB calorimetric assay. The cells are then exposed to the compound to be tested for 2 to 5 days at various concentrations and then counted.

Numbered stars: 1 amine (or outer) side, 2 acyl side, 3 side chain; on linkers, the order of the positions; unused ones are H or OH. Square brackets hold non-standard residues; d marks the D form. Side chains are listed from the residue outwards. Peptide text beside a SMILES is read from it. * marks the point of attachment. Ethylenediamine = C(CN[*:2])N[*:1]; cisHyp = O=C(O)[C@@H]1C[C@H](O)CN1; Hyp = O=C(O)[C@@H]1C[C@@H](O)CN1; NHCH2CH2NMe2 = CN(C)CCN*; CO = O=C([*:1])[*:2]; Bn = c1ccc(C*)cc1

hSST-3, sequence (P32745 whole entry): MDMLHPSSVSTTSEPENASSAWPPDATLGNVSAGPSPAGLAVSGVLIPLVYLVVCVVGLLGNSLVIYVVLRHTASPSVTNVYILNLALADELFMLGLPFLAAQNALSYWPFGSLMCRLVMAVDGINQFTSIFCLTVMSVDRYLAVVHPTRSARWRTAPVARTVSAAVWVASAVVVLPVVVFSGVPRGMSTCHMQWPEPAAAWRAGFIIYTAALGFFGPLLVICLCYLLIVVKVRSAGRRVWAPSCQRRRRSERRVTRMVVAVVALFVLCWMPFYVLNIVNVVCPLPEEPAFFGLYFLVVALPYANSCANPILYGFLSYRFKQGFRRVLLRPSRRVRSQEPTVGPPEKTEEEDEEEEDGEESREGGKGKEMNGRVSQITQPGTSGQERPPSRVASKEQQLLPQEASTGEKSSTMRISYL
hSST-5, sequence (P35346 whole entry): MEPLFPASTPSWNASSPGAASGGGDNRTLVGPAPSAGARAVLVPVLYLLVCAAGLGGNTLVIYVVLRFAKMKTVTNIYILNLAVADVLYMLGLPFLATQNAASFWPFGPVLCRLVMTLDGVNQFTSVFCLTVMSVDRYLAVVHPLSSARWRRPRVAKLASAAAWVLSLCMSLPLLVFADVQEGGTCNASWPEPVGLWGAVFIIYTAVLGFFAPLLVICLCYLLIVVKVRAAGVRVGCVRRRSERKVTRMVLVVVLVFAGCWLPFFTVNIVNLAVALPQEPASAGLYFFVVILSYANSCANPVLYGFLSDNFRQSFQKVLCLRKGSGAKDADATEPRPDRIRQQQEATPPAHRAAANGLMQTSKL

On to `NCCCC[C@@H]1NC(=O)[C@@H](Cc2c[nH]c3ccccc23)NC(=O)[C@H](Cc2ccccc2)NC(=O)[C@@H]2C[C@@H](O)CN2C(=O)[C@H](Cc2ccccc2)NC(=O)[C@H](Cc2ccc(OCc3ccccc3)cc2)NC1=O` [Example 1, Cyclo [HyPro-Phe-DTrp-Lys-Tyr(Bzl)-Phe]] (cyclo(F[Hyp]F[dW]KY(Bn))), for which the IC50 at hSST-1 came to 63 nM; at hSST-2, 0.94 nM; at hSST-3, 1.9 nM; at hSST-4 it was 320 nM; at hSST-5, 0.35 nM.
Regarding `NCCCC[C@@H]1NC(=O)[C@@H](Cc2c[nH]c3ccccc23)NC(=O)[C@H](Cc2ccccc2)NC(=O)[C@@H]2C[C@@H](OC(=O)NCCN)CN2C(=O)[C@H](Cc2ccccc2)NC(=O)[C@H](COCc2ccccc2)NC1=O` [Example 31] (cyclo(F[Hyp]([CO-Ethylenediamine])F[dW]KS(Bn))), the IC50 on hSST-1 turned out to be 0.5 nM; on hSST-2 it was 0.8 nM; at hSST-3, 3.9 nM; on hSST-5, 2.9 nM.
`NCCCC[C@@H]1NC(=O)[C@@H](Cc2c[nH]c3ccccc23)NC(=O)[C@H](Cc2ccccc2)NC(=O)[C@@H]2C[C@@H](OC(=O)NCCN)CN2C(=O)[C@H](Cc2ccccc2)NC(=O)[C@H](Cc2ccc(OCc3ccccc3)cc2)NC1=O` [Example 2, Cyclo[{4-(NH2 --C2 H4 --NH--CO--O--)Pro}-Phe-DTrp-Lys-Tyr(Bzl)-Phe]] (cyclo(F[Hyp]([CO-Ethylenediamine])F[dW]KY(Bn))): the IC50 on hSST-1 was determined as 4.6 nM; on hSST-2, 2.3 nM; at hSST-3, 0.93 nM; at hSST-4, 490 nM; on hSST-5 it was 0.46 nM; in assay [1], 0.4 nM. Besides, in assay [2], the IC50 was 0.7 ± 0.3 nM.
Turning to `NCCCC[C@@H]1NC(=O)[C@@H](Cc2c[nH]c3ccccc23)NC(=O)[C@H](Cc2ccccc2)NC(=O)[C@@H]2C[C@H](OC(=O)NCCN)CN2C(=O)[C@H](Cc2ccccc2)NC(=O)[C@H](COCc2ccccc2)NC1=O` [Example 32] (cyclo(F[cisHyp]([CO-Ethylenediamine])F[dW]KS(Bn))), the IC50 at hSST-1 was found to be 3.8 nM; at hSST-2 it was 0.13 nM; at hSST-3 it was 57 nM; at hSST-5, 2 nM.
On to `CN(C)CCNC(=O)O[C@@H]1C[C@H]2C(=O)N[C@@H](Cc3ccccc3)C(=O)N[C@H](Cc3c[nH]c4ccccc34)C(=O)N[C@@H](CCCCN)C(=O)N[C@@H](COCc3ccccc3)C(=O)N[C@@H](Cc3ccccc3)C(=O)N2C1` [Example 36] (cyclo(F[Hyp]([CO-NHCH2CH2NMe2])F[dW]KS(Bn))), for which the IC50 at hSST-1 came to 0.6 nM; at hSST-2, 1.3 nM; at hSST-3 it was 2.4 nM; on hSST-5 it was 4.5 nM.

Source of the values: patent US6225284A, “Somatostatin peptides” (Novartis AG, priority 1995, dated 2001).
